Laboratory results from patent publication US20250090699A1, “FAP TARGETING CYCLIC PEPTIDES AND CONJUGATES THEREOF” (Novartis AG, priority 2023, published 2025).
Where a name gives a salt, the structure may show the parent alone. Starred links: 1 amine or outer side, 2 acyl side, 3 side chain; linkers in the order of their positions; H or OH if unused. Non-standard residues stand in square brackets, D forms with d. Residues, ends and D or L forms follow the SMILES beside them. Groups on a side chain read outwards from the residue. *: point of attachment. F(4OEtNHDOTA-Lu) = lutetium complex of (S)-2,2',2''-(10-(2-((2-(4-(2-amino-2-carboxyethyl)phenoxy)ethyl)amino)-2-oxoethyl)-1,4,7,10-tetraazacyclododecane-1,4,7-triyl)triacetic acid (Phe with 4-O-ethylamino-DOTA-Lu), O=C([O-])CN1CCN(CC(=O)[O-])CCN(CC(=O)NCCOc2ccc(C[C@H](N[*:1])C(=O)[*:2])cc2)CCN(CC(=O)[O-])CC1.[Lu+3]; Pyrrolidine(2S-CN,4,4-F2) = N#C[C@@H]1CC(F)(F)CN1*; Phe(4-CH2NH2) = NCc1ccc(C[C@H](N)C(=O)O)cc1; Piperazinyl(4-CH2COOH) = O=C(O)CN1CCN(*)CC1; 3Pal(6-NH2) = Nc1ccc(C[C@H](N)C(=O)O)cn1; AEF = NCCOc1ccc(C[C@H](N)C(=O)O)cc1; Nicotinoyl(6-F) = O=C(c1ccc(F)nc1)*; NMeF = CN[C@@H](Cc1ccccc1)C(=O)O; Aoc(2) = CCCCCC[C@H](N)C(=O)O; Ahp(2) = CCCCC[C@H](N)C(=O)O; AEEA = NCCOCCOCC(=O)O; CO = O=C([*:1])[*:2]

Tests used:
[1] = biological target: T1, mouse FAP (Mus musculus, UniProt P97321); test: Surface plasmon resonance (SPR) for peptide affinity, mouse FAP; format: binding
T1 construct: biotinylated His, Avi tag, mouse FAP (26-761, FAP-M82Q5); His; Avi tag (biotinylated); purchased AcroBiosystems FAP-M82Q5
T1 sequence (P97321 26-761): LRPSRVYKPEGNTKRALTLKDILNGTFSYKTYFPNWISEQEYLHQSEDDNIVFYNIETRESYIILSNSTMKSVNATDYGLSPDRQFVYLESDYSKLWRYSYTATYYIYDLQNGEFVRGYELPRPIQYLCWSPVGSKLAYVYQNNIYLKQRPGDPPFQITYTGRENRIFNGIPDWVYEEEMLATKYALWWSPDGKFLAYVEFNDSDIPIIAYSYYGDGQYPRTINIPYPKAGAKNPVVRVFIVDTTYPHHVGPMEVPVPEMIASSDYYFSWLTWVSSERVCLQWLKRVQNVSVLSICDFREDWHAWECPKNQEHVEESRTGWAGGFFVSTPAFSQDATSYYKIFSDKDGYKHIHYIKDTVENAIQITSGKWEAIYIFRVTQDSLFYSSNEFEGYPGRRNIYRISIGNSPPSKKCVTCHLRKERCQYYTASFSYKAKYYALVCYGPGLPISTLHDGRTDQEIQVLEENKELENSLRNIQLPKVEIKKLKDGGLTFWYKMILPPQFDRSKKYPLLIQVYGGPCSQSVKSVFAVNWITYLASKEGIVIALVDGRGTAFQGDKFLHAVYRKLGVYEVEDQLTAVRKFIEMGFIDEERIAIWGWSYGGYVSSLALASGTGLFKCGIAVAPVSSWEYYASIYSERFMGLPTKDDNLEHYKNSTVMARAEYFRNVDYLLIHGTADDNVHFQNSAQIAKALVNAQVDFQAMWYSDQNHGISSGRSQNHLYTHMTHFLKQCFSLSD
Outline: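 Biotinylated His/Avi-tagged FAP ectodomains (human 26-760, mouse 26-761) captured or immobilized on Biacore sensor chips; peptides run at 25 °C in HBS-EP+ pH 7.6 with 2% DMSO, single-cycle kinetics, 8 concentrations. KD from 1:1 binding-model fit of sensorgrams.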

[2] = biological target: T1, mouse FAP; test: Enzymatic FAP competition assay (Z-Gly-Pro-AMC fluorescence), mouse FAP; format: biochemical; details: read-out: m. FAP, Enz., IC50
Outline: (§1)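 Biotinylated His/Avi-tagged FAP ectodomain (human 26-760, mouse 26-761) at 0.01 nM, preincubated 24 h with peptides (14 concentrations, up to 1 μM) in pH 7.5 phosphate, 150 mM NaCl, 0.05% Tween20, 1% DMSO. Then 50 μM Z-Gly-Pro-AMC, 4 h at 22-24° C; AMC fluorescence (380/460 nm) gave IC50 from duplicate points.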

[3] = biological target: T2, human FAP (Homo sapiens, UniProt Q12884); test: Enzymatic FAP competition assay (Z-Gly-Pro-AMC fluorescence), human FAP; format: biochemical; details: read-out: h. FAP, Enz., IC50
T2 construct: the biotinylated His, Avi tag, human FAP (26-760, FAP-H82Q6); His; Avi tag (biotinylated); purchased AcroBiosystems FAP-H82Q6
T2 sequence (Q12884 26-760): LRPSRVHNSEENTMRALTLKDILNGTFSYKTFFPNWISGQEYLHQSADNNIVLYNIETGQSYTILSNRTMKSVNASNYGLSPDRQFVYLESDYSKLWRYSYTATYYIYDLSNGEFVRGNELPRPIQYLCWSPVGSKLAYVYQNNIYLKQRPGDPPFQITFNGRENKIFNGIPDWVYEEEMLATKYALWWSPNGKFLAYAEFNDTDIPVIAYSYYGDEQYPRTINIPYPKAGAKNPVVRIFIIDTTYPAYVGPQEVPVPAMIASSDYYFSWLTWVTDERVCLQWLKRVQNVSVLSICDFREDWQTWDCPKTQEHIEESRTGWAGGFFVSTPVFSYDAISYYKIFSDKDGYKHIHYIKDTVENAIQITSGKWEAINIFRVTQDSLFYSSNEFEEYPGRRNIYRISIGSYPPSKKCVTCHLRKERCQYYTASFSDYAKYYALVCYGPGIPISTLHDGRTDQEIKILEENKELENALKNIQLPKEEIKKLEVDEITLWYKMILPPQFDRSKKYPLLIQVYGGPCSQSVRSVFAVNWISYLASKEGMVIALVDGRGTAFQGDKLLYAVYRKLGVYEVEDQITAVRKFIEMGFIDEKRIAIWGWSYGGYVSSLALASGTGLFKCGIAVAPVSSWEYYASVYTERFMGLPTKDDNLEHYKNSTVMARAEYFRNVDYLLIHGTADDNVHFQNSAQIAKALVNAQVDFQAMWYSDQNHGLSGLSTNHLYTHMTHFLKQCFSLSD
Outline: as §1

Row | Compound | Kd [1] | IC50 [2] | IC50 [3]
1 | CCCCC[C@@H]1NC(=O)[C@H](Cc2ccc(OCCN)cc2)NC(=O)[C@H](Cc2ccccc2)N(C)C(=O)CNC(=O)CNC(=O)[C@H]2CCCN2C(=O)[C@H](CC(=O)O)NC(=O)[C@H](Cc2ccc(O)cc2)NC(=O)CNC(=O)[C@H](Cc2c[nH]c3ccccc23)NC1=O [Example A59, Gly-Gly-NMePhe-F(4OEtNH2)-Ahp-Trp-Gly-Tyr-Asp-D-Pro, TFA salt] (cyclo([AEF][Ahp(2)]WGYD[dP]GG[NMeF])) | 0.38 nM | 0.49 nM | 0.136 nM
2 | CCCCC[C@@H]1NC(=O)[C@H](Cc2ccc(CNC(C)=O)cc2)NC(=O)[C@H](Cc2ccccc2)N(C)C(=O)CNC(=O)CNC(=O)[C@H]2CCCN2C(=O)[C@H](CC(=O)O)NC(=O)[C@H](Cc2ccc(O)cc2)NC(=O)CNC(=O)[C@H](Cc2c[nH]c3ccccc23)NC1=O [Example A28, Gly-Gly-NMePhe-F(4AmAc)-Ahp-Trp-Gly-Tyr-Asp-D-Pro] (cyclo(GG[NMeF][Phe(4-CH2NH2)](Ac)[Ahp(2)]WGYD[dP])) | 0.52 nM | 0.33 nM | 0.063 nM
3 | CN1C(=O)CNC(=O)[C@H](CCCCN)NC(=O)[C@H]2CCCN2C(=O)[C@H](CC(=O)O)NC(=O)[C@H](Cc2ccc(O)cc2)NC(=O)CNC(=O)[C@H](Cc2c[nH]c3ccccc23)NC(=O)[C@H](CCC(=O)N2CC(F)(F)C[C@H]2C#N)NC(=O)[C@H](Cc2ccc(O)cc2)NC(=O)[C@@H]1Cc1ccccc1 [Example A29, Lys-Gly-NMePhe-Tyr-Q(Pyrro(2CN4F2))-Trp-Gly-Tyr-Asp-D-Pro] (cyclo(KG[NMeF]YE(Pyrrolidine(2S-CN,4,4-F2))WGYD[dP])) | 0.044 nM | 0.082 nM | 0.059 nM

Second part, the compound after the results:

Row | Kd [1] | IC50 [2] | IC50 [3] | Compound
4 | < 0.022 nM | 0.042 nM | 0.017 nM | CCCCCC[C@@H]1NC(=O)[C@H](Cc2ccc(CNC(=O)COCCOCCNC(=S)Nc3ccc(CC4CN(CC(=O)O)CCN(CC(=O)O)CCN(CC(=O)O)CCN4CC(=O)O)cc3)cc2)NC(=O)[C@H](Cc2ccccc2)N(C)C(=O)CNC(=O)CNC(=O)[C@H]2CCCN2C(=O)[C@H](CC(=O)O)NC(=O)[C@H](CCCCNC(=O)N2CCN(CC(=O)O)CC2)NC(=O)CNC(=O)[C@H](Cc2c[nH]c3ccccc23)NC1=O (stereo partly drawn) [Example B37, Gly-Gly-NMePhe-F(4amPEG2NH-p-SCN-DOTA-Aoc-Trp-Gly-K(COpipzaa)-Asp-D-Pro]
5 | < 0.014 nM | 0.022 nM | 0.006 nM | CCCCCC[C@@H]1NC(=O)[C@H](Cc2ccc(CNC(=O)COCCOCCNC(=O)c3ccc(F)nc3)cc2)NC(=O)[C@H](Cc2ccccc2)N(C)C(=O)CNC(=O)CNC(=O)[C@H]2CCCN2C(=O)[C@H](CC(=O)O)NC(=O)[C@H](CCCCNC(=O)N2CCN(CC(=O)O)CC2)NC(=O)CNC(=O)[C@H](Cc2c[nH]c3ccccc23)NC1=O [Example C55, Gly-Gly-NMePhe-F(4amPEG2NHCOPy3(4F))-Aoc-Trp-Gly-K(COpipzaa)-Asp-D-Pro] (cyclo([Aoc(2)]WGK([CO-Piperazinyl(4-CH2COOH)])D[dP]GG[NMeF][Phe(4-CH2NH2)]([AEEA-Nicotinoyl(6-F)])))
6 | 0.035 nM | 0.059 nM | 0.013 nM | Gly-Gly-NMePhe-F(4OEtNHDOTA-Lu)-Ahp-Trp-Gly-3PyA(6NH2)-Asp-D-Pro (cyclo(GG[NMeF][F(4OEtNHDOTA-Lu)][Ahp(2)]WG[3Pal(6-NH2)]D[dP]); also: Lu complex of DOTA) [Example C24]
